Patent US20220324835A1 (Nurix Therapeutics, Inc., priority 2018, published 2022)
Read-outs that look alike come from different tables or passages of the source.

Assays:
[1] = system: primary human NK cells; test: NK cell activation assessed by cytokine secretion (coculture with K562 NucRed target cells); assay type: cell-based
Experimental: Peripheral blood mononuclear cells (PBMC) were obtained either: 1) by using Ficoll-Paque™ (GE Healthcare) for separation of peripheral blood hematopoietic cells from buffy coats of healthy human donors; or 2) directly from LeukoPak donations. […] The cells were cultured overnight with IL-2 (60 ng/mL) at 37° C. 5% CO2. Cbl-b inhibitors were added 1 hour prior to stimulation and incubated at 37° C. 5% CO2 at a specific concentration (e.g., 10 μM, 1 μM, or 0.1 μM) with a final DMSO concentration of <0.1%. NK cells were co-cultured with target cells that were engineered to have a red nucleus (K562 NucRed) measurable by flow cytometry. […] The cells were mixed at the indicated ratios (e.g., 5:1, 1:1, or 1:5) of NK (effector cells) to K562 NucRed (target cells) for 6 hours. Cell free supernatants were collected and analyzed for cytokine secretion (e.g. TNFα, IFNγ, or MIP1β) by ELISA or Luminex multiplex kits following the manufacturer's protocol. IFNγ secretion was assessed using an R&D Systems ELISA kit (Catalog #DY285), TNFα secretion was assessed using an R&D Systems ELISA kit (Catalog #DY210), and MIP1β secretion was assessed using an R&D Systems ELISA kit (Catalog #DY271).
Readouts were reported as fold change over baseline. Baseline for this study was the measurement obtained from primary human NK effector cells cocultured with K562 NucRed target cells in the absence of a Cbl-b inhibitor. For NK cells cocultured with K562 NucRed cells, changes greater than 2.0-fold over baseline for cytokine secretion were considered a positive response (Table 10a and 10b).

[2] = system: T-cell; test: IL-2 secretion from T-cells stimulated with anti-CD3 antibody alone (Biological Example 2); assay type: cell-based; conditions: primary human total T-cells, read-out: IL-2 secretion, Anti-CD3 stimulation, fold change over baseline; for fold induction at 1 µM: 1 μM compound; for fold induction at 8 µM: 8 μM compound
[3] = K562, 1:1 E/T, read-out: IFNγ secretion
[4] = K562, 1:1 E/T, read-out: MIP1β secretion
[5] = K562, 1:1 E/T, read-out: TNFα secretion
[6] = K562, 5:1 E/T, read-out: IFNγ secretion
[7] = K562, 5:1 E/T, read-out: MIP1β secretion
[8] = K562, 5:1 E/T, read-out: TNFα secretion

C[C@H](Cc1nncn1C)c1cccc(NC(=O)c2cc(C3CC3)cc(C(F)(F)F)n2)c1 [Compound 191, (R)-4-cyclopropyl-N-(3-(1-(4-methyl-4H-1,2,4-triazol-3-yl)propan-2-yl)phenyl)-6-(trifluoromethyl)picolinamide]
fold induction at 1 µM [1, 3]: 2.01 to 5 | fold induction at 1 µM [1, 4]: 1.01 to 2 | fold induction at 1 µM [1, 5]: 2.01 to 5 | fold induction at 10 µM [1, 3]: 2.01 to 5 | fold induction at 10 µM [1, 4]: 1.01 to 2 | fold induction at 10 µM [1, 5]: 1.01 to 2 | fold induction at 1 µM [1, 6]: 2.01 to 5 | fold induction at 1 µM [1, 7]: 1.01 to 2 | fold induction at 1 µM [1, 8]: 2.01 to 5 | fold induction at 10 µM [1, 6]: > 5 | fold induction at 10 µM [1, 7]: 1.01 to 2 | fold induction at 10 µM [1, 8]: 2.01 to 5

C[C@H](Cc1nncn1C)c1cccc(NC(=O)c2cc(C(=O)N3CC[C@H](O)C3)cc(C(F)(F)F)n2)c1 [Compound 220, 4-((S)-3-hydroxypyrrolidine-1-carbonyl)-N-(3-((R)-1-(4-methyl-4H-1,2,4-triazol-3-yl)propan-2-yl)phenyl)-6-(trifluoromethyl)picolinamide]
fold induction at 1 µM [1, 3]: 1.01 to 2 | fold induction at 1 µM [1, 4]: 1.01 to 2 | fold induction at 1 µM [1, 5]: 1.01 to 2 | fold induction at 10 µM [1, 3]: 2.01 to 5 | fold induction at 10 µM [1, 4]: 2.01 to 5 | fold induction at 10 µM [1, 5]: 2.01 to 5 | fold induction at 1 µM [1, 6]: 1.01 to 2 | fold induction at 1 µM [1, 7]: 1.01 to 2 | fold induction at 1 µM [1, 8]: 1.01 to 2 | fold induction at 10 µM [1, 6]: 2.01 to 5 | fold induction at 10 µM [1, 7]: 2.01 to 5 | fold induction at 10 µM [1, 8]: 2.01 to 5

Cn1cnnc1CC1(c2cccc(N3Cc4c(cc(CN5CC[C@H](F)C5)cc4C(F)(F)F)C3=O)c2)COC1 [Compound 410, 6-{[(3S)-3-fluoropyrrolidin-1-yl]methyl}-2-(3-{3-[(4-methyl-4H-1,2,4-triazol-3-yl)methyl]oxetan-3-yl}phenyl)-4-(trifluoromethyl)-2,3-dihydro-1H-isoindol-1-one]
fold induction at 1 µM [2]: > 0.201 | fold induction at 8 µM [2]: > 0.201

Cn1cnnc1CC1(c2cccc(N3Cc4c(cc(CN5CC[C@@H](C#N)C5)cc4C(F)(F)F)C3=O)c2)COC1 [Compound 421, (R)-1-((2-(3-(3-((4-methyl-4H-1,2,4-triazol-3-yl)methyl)oxetan-3-yl)phenyl)-3-oxo-7-(trifluoromethyl)isoindolin-5-yl)methyl)pyrrolidine-3-carbonitrile]
fold induction at 1 µM [2]: 0.101 to 0.15 | fold induction at 8 µM [2]: > 0.201

Cn1cnnc1CC1(c2cccc(N3Cc4c(cc(CN5C[C@H]6C[C@H]6C5)cc4C(F)(F)F)C3=O)c2)COC1 [Compound 429, 6-(((1R,5S)-3-azabicyclo[3.1.0]hexan-3-yl)methyl)-2-(3-(3-((4-methyl-4H-1,2,4-triazol-3-yl)methyl)oxetan-3-yl)phenyl)-4-(trifluoromethyl)isoindolin-1-one]
fold induction at 1 µM [2]: > 0.201 | fold induction at 8 µM [2]: > 0.201

Cn1cnnc1CC1(c2cccc(N3Cc4c(cc(CN5CCC[C@H](F)C5)cc4C(F)(F)F)C3=O)c2)COC1 [Compound 432, 6-{[(3S)-3-fluoropiperidin-1-yl]methyl}-2-(3-{3-[(4-methyl-4H-1,2,4-triazol-3-yl)methyl]oxetan-3-yl}phenyl)-4-(trifluoromethyl)-2,3-dihydro-1H-isoindol-1-one]
fold induction at 1 µM [2]: > 0.201

Cn1cnnc1C(F)(F)[C@](C)(F)c1cccc(N2Cc3c(cc(CN4CC[C@H](F)C4)cc3C(F)(F)F)C2=O)c1 [Compound 447, 6-(((S)-3-fluoropyrrolidin-1-yl)methyl)-2-(3-((R)-1,1,2-trifluoro-1-(4-methyl-4H-1,2,4-triazol-3-yl)propan-2-yl)phenyl)-4-(trifluoromethyl)isoindolin-1-one]
fold induction at 1 µM [2]: > 0.201 | fold induction at 8 µM [2]: > 0.201 | fold induction at 1 µM [1, 3]: 2.01 to 5 | fold induction at 1 µM [1, 4]: < 1 | fold induction at 1 µM [1, 5]: 2.01 to 5 | fold induction at 10 µM [1, 3]: > 5 | fold induction at 10 µM [1, 4]: 1.01 to 2 | fold induction at 10 µM [1, 5]: 2.01 to 5 | fold induction at 1 µM [1, 6]: > 5 | fold induction at 1 µM [1, 7]: 1.01 to 2 | fold induction at 1 µM [1, 8]: 2.01 to 5 | fold induction at 10 µM [1, 6]: > 5 | fold induction at 10 µM [1, 7]: 2.01 to 5 | fold induction at 10 µM [1, 8]: > 5

Cn1cnnc1C(F)(F)[C@](C)(F)c1cccc(N2Cc3c(cc(CN4CCC(F)(F)C4)cc3C(F)(F)F)C2=O)c1 [Compound 448, (R)-6-((3,3-difluoropyrrolidin-1-yl)methyl)-2-(3-(1,1,2-trifluoro-1-(4-methyl-4H-1,2,4-triazol-3-yl)propan-2-yl)phenyl)-4-(trifluoromethyl)isoindolin-1-one]
fold induction at 1 µM [2]: 0.101 to 0.15 | fold induction at 8 µM [2]: > 0.201 | fold induction at 1 µM [1, 3]: 1.01 to 2 | fold induction at 1 µM [1, 4]: 1.01 to 2 | fold induction at 1 µM [1, 5]: 1.01 to 2 | fold induction at 10 µM [1, 3]: > 5 | fold induction at 10 µM [1, 4]: 2.01 to 5 | fold induction at 10 µM [1, 5]: 2.01 to 5 | fold induction at 1 µM [1, 6]: 1.01 to 2 | fold induction at 1 µM [1, 7]: 1.01 to 2 | fold induction at 1 µM [1, 8]: 1.01 to 2 | fold induction at 10 µM [1, 6]: > 5 | fold induction at 10 µM [1, 7]: 2.01 to 5 | fold induction at 10 µM [1, 8]: 2.01 to 5

Cn1cnnc1CC1(c2cccc(N3Cc4c(cc(CN5CC6(CC6)C5)cc4C(F)(F)F)C3=O)c2)COC1 [Compound 487, 6-{5-azaspiro[2.3]hexan-5-ylmethyl}-2-(3-{3-[(4-methyl-1,2,4-triazol-3-yl)methyl]oxetan-3-yl}phenyl)-4-(trifluoromethyl)-3H-isoindol-1-one]
fold induction at 1 µM [2]: > 0.201

Cn1cnnc1CC1(c2cccc(NC(=O)c3cc(CN4CC[C@H](F)C4)cc(C4CC4)n3)c2)COC1 [Compound 496, 6-cyclopropyl-4-{[(3S)-3-fluoropyrrolidin-1-yl]methyl}-N-(3-{3-[(4-methyl-1,2,4-triazol-3-yl)methyl]oxetan-3-yl}phenyl)pyridine-2-carboxamide]
fold induction at 1 µM [2]: > 0.201

C[C@@H](c1cc2c(c(C(F)(F)F)c1)CN(c1cccc(C3(Cc4nncn4C)COC3)c1)C2=O)N1C[C@H]2C[C@H]2C1 [Compound 541a, 6-((1S)-1-(3-azabicyclo[3.1.0]hexan-3-yl)ethyl)-2-(3-(3-((4-methyl-4H-1,2,4-triazol-3-yl)methyl)oxetan-3-yl)phenyl)-4-(trifluoromethyl)isoindolin-1-one]
fold induction at 1 µM [2]: > 0.201

C[C@@H](c1cc2c(c(C(F)(F)F)c1)CN(c1cccc(C3(Cc4nncn4C)COC3)c1)C2=O)N1CCC(C)(F)CC1 [Example 553a, (S)-6-(1-(4-fluoro-4-methylpiperidin-1-yl)ethyl)-2-(3-(3-((4-methyl-4H-1,2,4-triazol-3-yl)methyl)oxetan-3-yl)phenyl)-4-(trifluoromethyl)isoindolin-1-one]
fold induction at 1 µM [2]: > 0.201

C[C@H](c1cc2c(c(C(F)(F)F)c1)CN(c1cccc(C3(Cc4nncn4C)COC3)c1)C2=O)N1CCC(C)(F)CC1 [Example 553b, (R)-6-(1-(4-fluoro-4-methylpiperidin-1-yl)ethyl)-2-(3-(3-((4-methyl-4H-1,2,4-triazol-3-yl)methyl)oxetan-3-yl)phenyl)-4-(trifluoromethyl)isoindolin-1-one]
fold induction at 1 µM [2]: > 0.201
